Values of other authors in US7557115B2, “Compounds, compositions, and methods” (Cytokinetics, Inc., priority 2002, dated 2009).

System: A549 cells
Conditions: concentration that decreases rate of cell growth by fifty percent

With `NC(=O)NO` [hydroxyurea] as the molecule, how does the GI50 read?
Its GI50 is 500000 nM.

Which GI50 does the source give for `CC(=O)O[C@H]1C(=O)[C@@]2(C)[C@H]([C@H](OC(=O)c3ccccc3)[C@]3(O)C[C@H](OC(=O)[C@H](O)[C@@H](NC(=O)c4ccccc4)c4ccccc4)C(C)=C1C3(C)C)[C@]1(OC(C)=O)CO[C@@H]1C[C@@H]2O` [paclitaxel] here?
The GI50 was 4 nM.

For `O=c1[nH]cc(F)c(=O)[nH]1` [5-fluorouracil], which GI50 is on record?
The GI50 was 1000 nM.

For `COc1cccc2c1C(=O)c1c(O)c3c(c(O)c1C2=O)C[C@@](O)(C(=O)CO)C[C@@H]3O[C@H]1C[C@H](N)[C@H](O)[C@H](C)O1` [doxorubicin], which GI50 is on record?
The GI50 was 63 nM.
